What all share (type): cell-based
Assay [1] relates to HIV-1 NL4-3 pseudovirus (WT). To be noted: Table 3. The protocol:
(§1) The infectivity of HIV Env mutants and the inhibitory activities of membrane fusion inhibitors on mutants in TZM-bl cells were measured using a single-cycle infection assay as described previously. Briefly, the HIV pseudovirus was packed using an Env-coding plasmid, and pSG3ΔEnv was co-transfected into HEK293T cells. pSG3ΔEnv encodes an Env-defective, luciferase-expressing HIV-1 genome. After the pseudoviruses were harvested and filtrated, the amount of pseudoviruses was fixed via P24 antigen, and their infectivity was determined in TZM-bl cells. In order to measure the inhibitory activities of the inhibitors, inhibitors diluted serially 3-fold were mixed with an equal volume of pseudoviruses, and then 100 µL 1 × 10^5/mL TZM-bl cells were added to the mixture and incubated at 37 °C with 5% CO2 for 48 h. After that, TZM-bl cells were lysed using reporter lysis buffer, and IC50 values were calculated according to luciferase activity measured by luciferase assay reagents and a luminescence counter (Promega, Madison, WI, USA).

Assay [2] concerns HIV-1 NL4-3 gp41 I37T pseudovirus. To be noted: Table 3. As for the experimental part: (§2) Viral RNA was extracted from the supernatant, and, after reverse transcription, the cDNA was amplified using PCR. These amplified DNA were connected to the T-Easy vector and transformed to Trans 2-Blue Chemically Competent Cells. These sequences were determined via sequencing. The expression plasmids, which contained different HIV-1NL4-3 Env mutants, were constructed using DNA assembly (NEBuilder® HiFi DNA Assembly Master Mix). In brief, two primers were used to amplify Env, and the other two primers were used to amplify the vector fragment. The products of PCR were purified with a 20–25 bp overlap in the terminal of Env and the vector fragment Env and the vector fragment were added to the DNA assembly master mix at […] for 15 min and then transformed to Trans 2-Blue Chemically Competent Cells. Additionally, a single-point mutation was generated using double-stranded DNA templates and a selection of mutants with a restriction enzyme (DpnI) as described previously.
as §1

Assay [3] deals with HIV-1 NL4-3 gp41 I69V pseudovirus. The note with it: Table 3. As for the experimental part: as §2, §1
The test system of assay [4] is HIV-1 NL4-3 gp41 L33S pseudovirus. The note with it: Table 3. As for the experimental part:
as §2, §1

Assay [5] deals with HIV-1 NL4-3 gp41 L33S/I37T pseudovirus. The note with it: L33S/I37T; Table 3; TZM-bl cells, 48 h, luciferase; means, triplicate, repeated three times. The protocol:
(§3) We selected LP-40-induced drug resistance typical point mutations and combination mutation pseudoviruses to evaluate the current representative membrane fusion inhibitors.
as §1

In assay [6] the test system is HIV-1 NL4-3 gp41 L33S/V38A/N42T pseudovirus. To be noted: Table 3. As for the experimental part:
as §3, §1

Assay [7] relates to HIV-1 NL4-3 gp41 NDQEEDYN pseudovirus. The note with it: Table 3. The protocol: as §3, §1
In assay [8] the test system is HIV-1 NL4-3 gp41 NDQEEDYN/L33S/I37T pseudovirus. To be noted: Table 3. The protocol:
as §3, §1

Assay [9] concerns HIV-1 NL4-3 gp41 NDQEEDYN/L33S/V38A/N42T pseudovirus. To be noted: Table 3. As for the experimental part: as §3, §1
Assay [10] relates to HIV-1 NL4-3 gp41 V38A/N42T pseudovirus. The note with it: Table 3. As for the experimental part:
as §3, §1

With `CC[C@H](C)[C@H](NC(=O)[C@H](CCC(N)=O)NC(=O)[C@H](C)NC(=O)[C@H](CCC(N)=O)NC(=O)[C@H](CCC(=O)O)NC(=O)[C@H](CC(C)C)NC(=O)[C@H](CC(C)C)NC(=O)[C@H](C)NC(=O)[C@@H](NC(=O)[C@@H](NC(=O)[C@H](CCCCN)NC(=O)[C@H](CCC(N)=O)NC(=O)[C@H](CCC(=O)O)NC(=O)[C@H](Cc1c[nH]c2ccccc12)NC(=O)[C@H](CCC(=O)O)NC(=O)[C@H](CCC(N)=O)NC(=O)[C@H](Cc1c[nH]c2ccccc12)NC(C)=O)[C@@H](C)CC)[C@@H](C)O)C(=O)N[C@@H](CCC(N)=O)C(=O)N[C@@H](CCC(N)=O)C(=O)N[C@@H](CCC(=O)O)C(=O)N[C@@H](CCCCN)C(=O)N[C@@H](CC(N)=O)C(=O)N[C@@H](CCC(=O)O)C(=O)N[C@@H](Cc1ccc(O)cc1)C(=O)N[C@@H](CCC(=O)O)C(=O)N[C@@H](CC(C)C)C(=O)N[C@@H](CCC(N)=O)C(=O)N[C@@H](CCCCN)C(=O)N[C@@H](CC(C)C)C(=O)N[C@@H](CC(=O)O)C(=O)N[C@@H](CCCCN)C(=O)N[C@@H](Cc1c[nH]c2ccccc12)C(=O)N[C@@H](C)C(=O)N[C@@H](CO)C(=O)N[C@@H](CC(C)C)C(=O)N[C@@H](Cc1c[nH]c2ccccc12)C(=O)N[C@@H](CCC(=O)O)C(=O)N[C@@H](Cc1c[nH]c2ccccc12)C(=O)N[C@@H](Cc1ccccc1)C(N)=O` [T1249], the IC50 – broadly, the point on the concentration scale where inhibition reaches its midpoint – came to 0.00114 µM in [1] (WT NL4-3, TZM-bl cells, 48 h, luciferase, means, triplicate, repeated three times); 0.00138 µM in assay [2] (I37T, TZM-bl cells, 48 h, luciferase, means, triplicate, repeated three times); 0.00093 µM in assay [3] (I69V, TZM-bl cells, 48 h, luciferase, means, triplicate, repeated three times); 0.013 µM in assay [4] (L33S, TZM-bl cells, 48 h, luciferase, means, triplicate, repeated three times); 0.0815 µM in assay [5]; 0.259 µM in assay [6] (L33S/V38A/N42T, TZM-bl cells, 48 h, luciferase, means, triplicate, repeated three times). The half-inhibitory concentration (IC50) in [7] (NDQEEDYN (E109N, N113D, E119Q, D121E, N125E, S129D, H132Y, S133N), TZM-bl cells, 48 h, luciferase, means, triplicate, repeated three times) worked out at 0.00107 µM; in assay [8] (NDQEEDYN/L33S/I37T, TZM-bl cells, 48 h, luciferase, means, triplicate, repeated three times), 0.166 µM; in [9] (NDQEEDYN/L33S/V38A/N42T, TZM-bl cells, 48 h, luciferase, means, triplicate, repeated three times) it was 0.343 µM; in [10] (V38A/N42T, TZM-bl cells, 48 h, luciferase, means, triplicate, repeated three times), 0.0271 µM. Besides, the “Fold change in IC50” value was 1.00 fold in assay [1] (WT NL4-3 reference); 1.21 fold in [2] (I37T relative to WT NL4-3); 0.82 fold in assay [3] (I69V relative to WT NL4-3); 11.41 fold in [4] (L33S relative to WT NL4-3); 227.04 fold in assay [6] (L33S/V38A/N42T relative to WT NL4-3); 0.94 fold in [7] (NDQEEDYN relative to WT NL4-3). For the same compound, the “Fold change in IC50” value was found to be 145.54 fold in assay [8] (NDQEEDYN/L33S/I37T relative to WT NL4-3), 301.12 fold in assay [9] (NDQEEDYN/L33S/V38A/N42T relative to WT NL4-3) and 23.77 fold in assay [10] (V38A/N42T relative to WT NL4-3).

The values are drawn from paper PMC9223764, “In Vitro Selection and Characterization of HIV-1 Variants with Increased Resistance to LP-40, Enfuvirtide-Based Lipopeptide Inhibitor” (International Journal of Molecular Sciences, 2022).
